Assay results: article PMC6941952, “A homogeneous bioluminescent immunoassay to probe cellular signaling pathway regulation” (Communications Biology, 2020)
Values joined by “and” are separate entries in the source; they are usually repeats but may differ in a detail not shown here. Equal entries are not always repeated.

How the values were obtained:
[1] = test system: total IκBα; experiment: NanoBiT cell-based immunoassay, total IκBα in human breast tumor epithelial cells; details: for IkB degradation (% compared to no IKK16), Average / IkB degradation (% compared to no IKK16) / Non-Treated/Treated / Raw data / Subtract reagent background: Breast tumor cells, TNF; for IkB degradation (% compared to no IKK16), Average: average of replicates; for IkB degradation (% compared to no IKK16) / Non-Treated/Treated / Raw data / Subtract reagent background: single replicates
Procedure: All cell lines used are from ATCC. […] Human Primary Mammary Epithelial Cells (#H-6035), Human Breast Tumor Epithelial Cells (#HC-6035), Complete Human Epithelial Cell Medium (#H6621), and Gelatin-Based Coating Solution (#H6950) were purchased from Cell Biologics. The cells were cultured according to the manufacturer’s procedure. All cells were grown at 37 °C in a 5% CO2 humidified incubator and passaged before reaching 80% cell confluency. Prior to each experiment, cells were counted by combining 30 µl of cell suspension with 30 µl of trypan blue. After gentle pipetting up and down to mix the cells and the dye, the cell number was determined using Bio-Rad TC 20 cell counter.
(§1) Prior to NanoBiT Cell-Based Immunoassay, 50,000 cells were seeded in 160 µl of complete growth media per well of a 96-well plate and incubated overnight. The cells were checked under microscope and it was determined that 50,000 cells per well in 96-well plate is under 90% confluency for all cells tested. If necessary, the cell culture media were replaced with serum-free media after the cells were stably adherent on the plate and incubated overnight. To treat cells with activators or inhibitors, medium was changed to 30 µl of medium containing inhibitors. If activation of a specific pathway is needed, the cells were stimulated with 10 µl of medium containing activators. To lyse the cells, 10 µl of lysis buffer containing 0.1% digitonin diluted in 1X immunoassay buffer with protease and phosphatase inhibitors was added and the plates were mixed vigorously for 20 min. Then, 50 µl of an antibody mix containing two primary antibodies against the target protein and NanoBiT detecting antibodies (0.3 µl each per well), diluted in 1X immunoassay buffer was added to the lysates. The plates were incubated at 23 °C for 90 min, followed by the addition of 25 µl of Nano-Glo® reagent consisting of Nano-Glo® Luciferase Assay Substrate mixed with 1X immunoassay buffer. Luminescence was measured using a plate-reading luminometer.
(§2) Single dose or dose response inhibitor treatments were performed prior to activation of the pathways as follows. For IκBα, the cells were treated in 30 µl medium with IKK16 or MG132 for 60 min before the addition of 10 µl of DMEM containing appropriate concentration of TNFα. To measure phosphorylation of AKT or STAT3, the corresponding NanoBiT immunoassays were developed with MCF-7 or A431 cells, respectively, according the same scheme used to develop the IκBα assay using the primary antibodies for AKT and STAT3 described in the reagents section. For the AKT assay, MCF-7 cells were incubated overnight in phenol-red free DMEM medium (Gibco #21063-029) without serum. Treatment with LY294002 was performed in 30 µl medium and cells were incubated for 60 min before the addition of 1 µM Insulin. To measure STAT3 phosphorylation, A431 cells were incubated overnight in DMEM medium without serum. […] After addition of the stimulators, the cells were incubated for additional times as follows. IκBα phosphorylation and degradation analyses required both time courses and single time points as described in figures. […] The NanoBiT immunoassay protocol was followed as described above.
(§3) All 96-well assay plates were read using a GloMax® 96 Microplate Luminometer from Promega. The instrument was set to 0.5 s integration time. In order to obtain net change of signal, the reagent background values (signal from the well containing all reagent except primary antibodies) were subtracted from the sample values. To plot and analyze the data, Microsoft Excel and GraphPad Prism® Software were used. IC50 values were determined by using a nonlinear regression fit to a sigmoidal dose response (variable slope).

[2] = test system: NF-κB p65 Phospho-Ser536; experiment: NanoBiT cell-based immunoassay, phosphorylated p65 in MCF-7 cells; parameters: species or system human; details: for P-p65, Average: background subtracted, average of replicates; for P-p65, Raw data / P-p65, Subtract reagent background: single replicates
Procedure: as §1, §2, §3

[3] = test system: total NF-κB p65; experiment: NanoBiT cell-based immunoassay, total p65 in MCF-7 cells; parameters: species or system human; details: for Total p65, Average: background subtracted, average of replicates; for Total p65, Raw data / Total p65, Subtract reagent background: single replicates
Procedure: as §1, §2, §3

Structure (SMILES): O=C(c1ccc(Nc2nccc(-c3cc4ccccc4s3)n2)cc1)N1CCC(N2CCCC2)CC1 [IKK16]
- IkB degradation (% compared to no IKK16), Average ([1]; IKK16 0.000762939 uM): 97.6%
- IkB degradation (% compared to no IKK16) ([1]; IKK16 0.000762939 uM): 92% and 104% and 97%
- Non-Treated/Treated ([1]; IKK16 0.000762939 uM): 3.423 and 4.061 and 3.878
- Raw data ([1]; IKK16 0.000762939 uM): 10940 and 10560 and 10750
- Subtract reagent background ([1]; IKK16 0.000762939 uM): 5493 and 5113 and 5303
- IkB degradation (% compared to no IKK16), Average ([1]; IKK16 0.00305176 uM): 98.3%
- IkB degradation (% compared to no IKK16) ([1]; IKK16 0.00305176 uM): 97% and 96% and 102%
- Non-Treated/Treated ([1]; IKK16 0.00305176 uM): 3.600 and 3.739 and 4.102
- Raw data ([1]; IKK16 0.00305176 uM): 10670 and 11000 and 10460
- Subtract reagent background ([1]; IKK16 0.00305176 uM): 5223 and 5553 and 5013
- IkB degradation (% compared to no IKK16), Average ([1]; IKK16 0.012207 uM): 95.1%
- IkB degradation (% compared to no IKK16) ([1]; IKK16 0.012207 uM): 98% and 99% and 88%
- Non-Treated/Treated ([1]; IKK16 0.012207 uM): 3.656 and 3.857 and 3.531
- Raw data ([1]; IKK16 0.012207 uM): 10590 and 10830 and 11270
- Subtract reagent background ([1]; IKK16 0.012207 uM): 5143 and 5383 and 5823
- IkB degradation (% compared to no IKK16), Average ([1]; IKK16 0.0488281 uM): 99.5%
- IkB degradation (% compared to no IKK16) ([1]; IKK16 0.0488281 uM): 95% and 97% and 106%
- Non-Treated/Treated ([1]; IKK16 0.0488281 uM): 3.552 and 3.780 and 4.255
- Raw data ([1]; IKK16 0.0488281 uM): 10740 and 10940 and 10280
- Subtract reagent background ([1]; IKK16 0.0488281 uM): 5293 and 5493 and 4833
- IkB degradation (% compared to no IKK16), Average ([1]; IKK16 0.195312 uM): 94.6%
- IkB degradation (% compared to no IKK16) ([1]; IKK16 0.195312 uM): 95% and 102% and 87%
- Non-Treated/Treated ([1]; IKK16 0.195312 uM): 3.532 and 3.953 and 3.507
- Raw data ([1]; IKK16 0.195312 uM): 10770 and 10700 and 11310
- Subtract reagent background ([1]; IKK16 0.195312 uM): 5323 and 5253 and 5863
- IkB degradation (% compared to no IKK16), Average ([1]; IKK16 0.78125 uM): 86.9%
- IkB degradation (% compared to no IKK16) ([1]; IKK16 0.78125 uM): 77% and 92% and 91%
- Non-Treated/Treated ([1]; IKK16 0.78125 uM): 2.883 and 3.584 and 3.657
- Raw data ([1]; IKK16 0.78125 uM): 11970 and 11240 and 11070
- Subtract reagent background ([1]; IKK16 0.78125 uM): 6523 and 5793 and 5623
- IkB degradation (% compared to no IKK16), Average ([1]; IKK16 3.125 uM): 49.5%
- IkB degradation (% compared to no IKK16) ([1]; IKK16 3.125 uM): 48% and 52% and 49%
- Non-Treated/Treated ([1]; IKK16 3.125 uM): 1.799 and 2.002 and 1.952
- Raw data ([1]; IKK16 3.125 uM): 15900 and 15820 and 15980
- Subtract reagent background ([1]; IKK16 3.125 uM): 10453 and 10373 and 10533
- IC50 ([1]; human primary breast tumor epithelial cells, pretreated 1 h, then TNFα 50 ng per ml 30 min, read-out: IC50, inhibition of TNFα induced degradation of IκBα): 1.82 µM
- TNFα-increased phosphorylation of p65 on serine 536 ([2]; MCF-7 cells, 10 µM 1 h, TNFα 50 ng per ml 10 min): inhibited
- P-p65, Average ([2]; TNF + Ikk16): 4467
- P-p65, Raw data ([2]; TNF + Ikk16): 22920 and 23320 and 23680
- P-p65, Subtract reagent background ([2]; TNF + Ikk16): 4080 and 4480 and 4840
- P-p65, Average ([2]; substance alone): 3920
- P-p65, Raw data ([2]; substance alone): 22430 and 21780 and 21730
- P-p65, Subtract reagent background ([2]; substance alone): 4370 and 3720 and 3670
- level of p65 ([3]; MCF-7 cells, TNFα 50 ng per ml 10 min, IKK16 10 µM 1 h): not affected
- Total p65, Average ([3]; TNF + Ikk16): 726760
- Total p65, Raw data ([3]; TNF + Ikk16): 756500 and 718200 and 763300
- Total p65, Subtract reagent background ([3]; TNF + Ikk16): 744060 and 737260 and 698960
- Total p65, Average ([3]; substance alone): 788717
- Total p65, Raw data ([3]; substance alone): 811900 and 763300 and 846900
- Total p65, Subtract reagent background ([3]; substance alone): 828250 and 793250 and 744650
